Laboratory results published in patent publication US20100041089A1, “IMPROVED METHOD FOR DETECTING CHEMICAL […]” (priority 2006, published 2010).

Test system: yeast genes (expressed mRNA)
Test: DNA chip measurement of expressed mRNA of yeast genes after culture with a toxic chemical substance
Assay type: cell-based, Saccharomyces cerevisiae S288C
Conditions: for The level of expressed mRNA in the presence of chemical substance/The level of expressed mRNA in the absence of chemical substance: cultured two hours with substance; for level of expressed mRNA in the presence of chemical substance / level in the absence of chemical substance: cultured two hours with the chemical substance
Method: Yeast (Saccharomyces cerevisiae S288C (a SUC2mal mel gap2 CUP1)) were cultured at 25° C. on YPD medium (yeast extract 1%, polypeptone 2%, glucose 2%). One of toxic chemical substances was added to the cell at logarithmic growth phase, and the cell was further cultured for two hours. Cell was cultured without any chemical substance in the same condition, and was used as a control. Concentrations of the chemical substances were defined to inhibit the growth of the yeast but not lead to death.
After the completion of cultivation, the culture was centrifuged to collect the cells. To the cells, sodium acetate buffer (50 mM sodium acetate, 10 mM EDTA, 1% SDS) was added, and the mixture was shaken at 65° C. for five minutes, followed by returning to room temperature, and obtaining the supernatant, which procedure was repeated two times. To the supernatant, ½ amount of a solution of phenol/chloroform (1:1) was added, and the mixture was centrifuged to give a supernatant, an equal amount of chloroform was added, and the mixture was centrifuged to give a supernatant. To the supernatant, an equal amount of isopropanol containing 0.3 M sodium acetate was added, and the mixture was allowed to stand at room temperature for 30 minutes, after which the mixture was centrifuged to give sediment of the whole RNAs. Seventy % ethanol was added to the sediment, and the mixture was again centrifuged to give sediment, which was then dried and dissolved in water. mRNA was isolated from the whole RNAs as followings. In view of the fact that a poly A chain is attached to the 3′ terminus of mRNA, a polynucleotide having a poly T structure which was immobilized on the surface of latex beads was used to trap the mRNA, and then the mRNA was washed and eluted with spine column (Oligotex-dT30<Super>mRNA Purification Kit, Takara). Reverse transcription of the mRNA was conducted with a reverse transcriptase (Super Script II Reverse Transcriptase; catalogue No. 18064-014, GibcoBRL) using fluorescence-labeled nucleotides to give cDNAs that were introduced with Cy3-dUTP or Cy5-dUTP during the reverse transcription.
The labeled cDNAs were dissolved in TE buffer (10 mM Tris-HCl/1 mM EDTA, pH 8.0), and the solution was dropped on the DNA chip containing the whole genes of yeast (DNA Chip Research Inc. Japan) so that the cDNAs were hybridized on the DNA chip at 65° C. for over 12 hours. The fluoresces intensity of the DNA chip was read with a scanner, and the ratio relative to the fluorescence intensity resulting from the absence of chemical substance was estimated as the following, which is shown in Tables 1 to 9.
In the Tables, “Intensity” indicated in the rightmost column is a value of the level of expressed mRNA of each gene in control cells as divided by the average level of the expressions of the whole genes. A gene of which mRNA level is lower in control, and is higher in cases of addition of chemical substance, is especially useful in the detection of toxic substances.
Here, when a ratio of an amount of mRNA expressed in the presence of the chemical substance to an amount of mRNA expressed in the absence of the chemical substance is two or more, then it is considered significant.

In the case of `Cl[C@H]1[C@H](Cl)[C@@H](Cl)[C@@H](Cl)[C@H](Cl)[C@H]1Cl` [(7), γ-Hexachlorocyclohexane], the “The level of expressed mRNA in the presence of chemical substance/The level of expressed mRNA in the absence of chemical substance” value (yeast gene YJL151C) is reported as 1.4, the “The level of expressed mRNA in the presence of chemical substance/The level of expressed mRNA in the absence of chemical substance” value (yeast gene YJL152W) is reported as 1.2 and the “The level of expressed mRNA in the presence of chemical substance/The level of expressed mRNA in the absence of chemical substance” value (yeast gene YJL161W) is reported as 3.6. The “The level of expressed mRNA in the presence of chemical substance/The level of expressed mRNA in the absence of chemical substance” value (yeast gene YJL171C) was 1.4, the “The level of expressed mRNA in the presence of chemical substance/The level of expressed mRNA in the absence of chemical substance” value (yeast gene YJR008W) was 2.9 and the “level of expressed mRNA in the presence of chemical substance / level in the absence of chemical substance” value (yeast gene YJR030C) was 0.7. The “The level of expressed mRNA in the presence of chemical substance/The level of expressed mRNA in the absence of chemical substance” value (yeast gene YJR054W) was 0.9, the “level of expressed mRNA in the presence of chemical substance / level in the absence of chemical substance” value (yeast gene YKL051W) was 0.6 and the “The level of expressed mRNA in the presence of chemical substance/The level of expressed mRNA in the absence of chemical substance” value (yeast gene YKL071W) was 3.7. The “The level of expressed mRNA in the presence of chemical substance/The level of expressed mRNA in the absence of chemical substance” value (yeast gene YKL086W) was 0.7, the “level of expressed mRNA in the presence of chemical substance / level in the absence of chemical substance” value (yeast gene YKL097C) was 0.8 and the “level of expressed mRNA in the presence of chemical substance / level in the absence of chemical substance” value (yeast gene YKL100C) was 1.2. For the same compound, the “The level of expressed mRNA in the presence of chemical substance/The level of expressed mRNA in the absence of chemical substance” value (yeast gene YKL151C) was 5.6, the “The level of expressed mRNA in the presence of chemical substance/The level of expressed mRNA in the absence of chemical substance” value (yeast gene YKL153W) was 1.1 and the “The level of expressed mRNA in the presence of chemical substance/The level of expressed mRNA in the absence of chemical substance” value (yeast gene YKL195W) was 2.1. For the same compound, the “level of expressed mRNA in the presence of chemical substance / level in the absence of chemical substance” value (yeast gene YKR040C) was 0.9, the “The level of expressed mRNA in the presence of chemical substance/The level of expressed mRNA in the absence of chemical substance” value (yeast gene YKR091W) was 1.3 and the “The level of expressed mRNA in the presence of chemical substance/The level of expressed mRNA in the absence of chemical substance” value (yeast gene YLR054C) was 1.1. The “The level of expressed mRNA in the presence of chemical substance/The level of expressed mRNA in the absence of chemical substance” value (yeast gene YLR149C) was 1.6, the “The level of expressed mRNA in the presence of chemical substance/The level of expressed mRNA in the absence of chemical substance” value (yeast gene YLR152C) was 1.4 and the “The level of expressed mRNA in the presence of chemical substance/The level of expressed mRNA in the absence of chemical substance” value (yeast gene YLR194C) was 1.0. For the same compound, the “level of expressed mRNA in the presence of chemical substance / level in the absence of chemical substance” value (yeast gene YLR226W) was 1.9, the “The level of expressed mRNA in the presence of chemical substance/The level of expressed mRNA in the absence of chemical substance” value (yeast gene YLR324W) was 1.0 and the “level of expressed mRNA in the presence of chemical substance / level in the absence of chemical substance” value (yeast gene YLR338W) was 0.9. The “The level of expressed mRNA in the presence of chemical substance/The level of expressed mRNA in the absence of chemical substance” value (yeast gene YLR350W) was 1.2, the “The level of expressed mRNA in the presence of chemical substance/The level of expressed mRNA in the absence of chemical substance” value (yeast gene YLR387C) was 1.1 and the “level of expressed mRNA in the presence of chemical substance / level in the absence of chemical substance” value (yeast gene YLR392C) was 1.0. The “level of expressed mRNA in the presence of chemical substance / level in the absence of chemical substance” value (yeast gene YLR415C) was 1.2, the “level of expressed mRNA in the presence of chemical substance / level in the absence of chemical substance” value (yeast gene YLR427W) was 1.2 and the “The level of expressed mRNA in the presence of chemical substance/The level of expressed mRNA in the absence of chemical substance” value (yeast gene YLR460C) was 1.1. For the same compound, the “level of expressed mRNA in the presence of chemical substance / level in the absence of chemical substance” value (yeast gene YML013W) was 1.3, the “level of expressed mRNA in the presence of chemical substance / level in the absence of chemical substance” value (yeast gene YML029W) was 1.1 and the “level of expressed mRNA in the presence of chemical substance / level in the absence of chemical substance” value (yeast gene YML041C) was 1.4. The “level of expressed mRNA in the presence of chemical substance / level in the absence of chemical substance” value (yeast gene YML079W) was 1.2, the “The level of expressed mRNA in the presence of chemical substance/The level of expressed mRNA in the absence of chemical substance” value (yeast gene YML117W) was 0.7 and the “The level of expressed mRNA in the presence of chemical substance/The level of expressed mRNA in the absence of chemical substance” value (yeast gene YMR009W) was 1.9. The “The level of expressed mRNA in the presence of chemical substance/The level of expressed mRNA in the absence of chemical substance” value (yeast gene YMR067C) was 1.2, the “level of expressed mRNA in the presence of chemical substance / level in the absence of chemical substance” value (yeast gene YMR068W) was 1.5 and the “level of expressed mRNA in the presence of chemical substance / level in the absence of chemical substance” value (yeast gene YMR071C) was 1.8. For the same compound, the “The level of expressed mRNA in the presence of chemical substance/The level of expressed mRNA in the absence of chemical substance” value (yeast gene YMR090W) was 2.7, the “The level of expressed mRNA in the presence of chemical substance/The level of expressed mRNA in the absence of chemical substance” value (yeast gene YMR095C) was 1.2 and the “The level of expressed mRNA in the presence of chemical substance/The level of expressed mRNA in the absence of chemical substance” value (yeast gene YMR097C) was 1.5. For the same compound, the “The level of expressed mRNA in the presence of chemical substance/The level of expressed mRNA in the absence of chemical substance” value (yeast gene YMR102C) was 1.8, the “The level of expressed mRNA in the presence of chemical substance/The level of expressed mRNA in the absence of chemical substance” value (yeast gene YMR107W) was 1.2 and the “level of expressed mRNA in the presence of chemical substance / level in the absence of chemical substance” value (yeast gene YMR160W) was 1.0. The “The level of expressed mRNA in the presence of chemical substance/The level of expressed mRNA in the absence of chemical substance” value (yeast gene YMR180C) was 1.7, the “The level of expressed mRNA in the presence of chemical substance/The level of expressed mRNA in the absence of chemical substance” value (yeast gene YMR184W) was 1.6 and the “The level of expressed mRNA in the presence of chemical substance/The level of expressed mRNA in the absence of chemical substance” value (yeast gene YMR191W) was 2.0. The “The level of expressed mRNA in the presence of chemical substance/The level of expressed mRNA in the absence of chemical substance” value (yeast gene YMR295C) was 1.3, the “The level of expressed mRNA in the presence of chemical substance/The level of expressed mRNA in the absence of chemical substance” value (yeast gene YMR316W) was 2.0 and the “level of expressed mRNA in the presence of chemical substance / level in the absence of chemical substance” value (yeast gene YNL026W) was 1.5. The “The level of expressed mRNA in the presence of chemical substance/The level of expressed mRNA in the absence of chemical substance” value (yeast gene YNL044W) was 0.9.
